What was measured:
Assay in all cases: relative viability (nuclei count vs DMSO), 5 days (fraction); higher = more cells survive
R406 + Dasatinib = compound: COc1cc(Nc2ncc(F)c(Nc3ccc4c(n3)NC(=O)C(C)(C)O4)n2)cc(OC)c1OC [R406] + Cc1nc(Nc2ncc(C(=O)Nc3c(C)cccc3Cl)s2)cc(N2CCN(CCO)CC2)n1 [Dasatinib] (partner 0.075 µM)
Summary of the method: (§1)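 Relative viability divides the nuclei count in treated wells by that in vehicle wells. Lung cancer cell lines were seeded in 1536-well plates, dosed by pin tool the next day, and fixed and stained after 5 days in one step with final 0.05% Triton X-100, 1% formaldehyde and 1 ug/ml Hoechst. Dosing was a single drug or a fixed anchor-drug dose plus five library-drug doses (not always all listed) in √10 steps, and values are medians of duplicate plates imaged at 4×.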

Daporinad + Bortezomib = compound: O=C(/C=C/c1cccnc1)NCCCCC1CCN(C(=O)c2ccccc2)CC1 [Daporinad] + CC(C)C[C@H](NC(=O)[C@H](Cc1ccccc1)NC(=O)c1cnccn1)B(O)O [Bortezomib] (partner 0.002 µM)
Summary of the method: as §1

Daporinad + Tozasertib = compound: O=C(/C=C/c1cccnc1)NCCCCC1CCN(C(=O)c2ccccc2)CC1 [Daporinad] + Cc1cc(Nc2cc(N3CCN(C)CC3)nc(Sc3ccc(NC(=O)C4CC4)cc3)n2)n[nH]1 [Tozasertib] (partner 0.1 µM)
Summary of the method: as §1

Daporinad + Pemetrexed = compound: O=C(/C=C/c1cccnc1)NCCCCC1CCN(C(=O)c2ccccc2)CC1 [Daporinad] + Nc1nc2[nH]cc(CCc3ccc(C(=O)N[C@@H](CCC(=O)O)C(=O)O)cc3)c2c(=O)[nH]1 [Pemetrexed] (partner 0.2 µM)
Summary of the method: as §1

Cell Line | relative viability (R406 + Dasatinib; first compound 0.08 µM) | relative viability (R406 + Dasatinib; first compound 0.253 µM) | relative viability (R406 + Dasatinib; first compound 0.8 µM) | relative viability (R406 + Dasatinib; first compound 2.53 µM) | relative viability (R406 + Dasatinib; first compound 8 µM) | relative viability (Daporinad + Bortezomib; first compound 0.0005 µM) | relative viability (Daporinad + Bortezomib; first compound 0.001581 µM) | relative viability (Daporinad + Bortezomib; first compound 0.005 µM) | relative viability (Daporinad + Bortezomib; first compound 0.01581 µM) | relative viability (Daporinad + Tozasertib; first compound 0.0005 µM) | relative viability (Daporinad + Tozasertib; first compound 0.001581 µM) | relative viability (Daporinad + Tozasertib; first compound 0.005 µM) | relative viability (Daporinad + Tozasertib; first compound 0.01581 µM) | relative viability (Daporinad + Pemetrexed; first compound 0.0005 µM) | relative viability (Daporinad + Pemetrexed; first compound 0.001581 µM) | relative viability (Daporinad + Pemetrexed; first compound 0.005 µM) | relative viability (Daporinad + Pemetrexed; first compound 0.01581 µM)
201T | 0.578 | 0.548 | 0.502 | 0.467 | 0.41 | 1.08 | 1.11 | 1.07 | 1.11 | 0.854 | 0.94 | 1 | 0.958 | 0.333 | 0.315 | 0.313 | 0.34
A-427 | 0.743 | 0.746 | 0.74 | 0.427 | 0.54 | 0.952 | 1.02 | 0.974 | 0.784 | 0.207 | 0.22 | 0.198 | 0.153 | 0.981 | 1.02 | 0.937 | 0.662
ABC-1 | 0.535 | 0.54 | 0.415 | 0.363 | 0.298 | 0.265 | 0.32 | 0.312 | 0.309 | 0.186 | 0.185 | 0.179 | 0.209 |  |  |  | 
BEN | 0.337 | 0.312 | 0.309 | 0.413 | 0.31 | 0.805 | 0.796 | 1.04 | 1.12 | 0.552 | 0.547 | 0.422 | 0.546 | 0.726 | 0.792 | 0.953 | 0.935
CAL-12T | 0.357 | 0.397 | 0.483 | 0.0973 | 0.0797 | 0.925 |  | 0.817 | 0.392 | 0.324 | 0.325 | 0.158 | 0.124 | 1.09 | 1.21 | 0.502 | 0.314
COR-L23 | 0.464 | 0.469 | 0.598 | 0.379 | 0.158 | 1.01 | 0.973 | 0.753 | 0.212 | 0.199 | 0.232 | 0.179 | 0.106 | 0.194 | 0.198 | 0.208 | 0.196
COR-L 105 | 0.332 | 0.387 | 0.354 | 0.317 | 0.204 | 0.827 | 0.815 | 0.781 | 0.753 | 0.38 | 0.282 | 0.357 | 0.341 | 1.21 | 1 | 1.18 | 1.02
Calu-6 |  |  |  |  |  | 0.957 | 1.04 | 0.848 | 0.352 |  |  |  |  |  |  |  | 
ChaGo-K-1 | 0.568 | 0.579 | 0.661 | 0.498 | 0.442 | 0.912 | 0.574 | 0.859 | 0.562 | 0.261 | 0.225 | 0.216 | 0.192 | 0.255 | 0.248 | 0.248 | 0.239
EBC-1 |  |  |  |  |  | 0.546 | 0.506 | 0.558 | 0.623 |  |  |  |  |  |  |  | 
EKVX | 0.626 | 0.32 | 0.511 | 0.402 | 0.367 | 0.939 | 1.16 | 1.12 | 1.12 | 0.392 | 0.457 | 0.301 | 0.396 | 0.344 | 0.468 | 0.389 | 0.343
EMC-BAC-2 | 0.293 | 0.331 | 0.385 | 0.186 | 0.173 | 1.22 | 1.04 | 1.06 | 0.301 | 0.321 | 0.311 | 0.224 | 0.204 | 0.428 | 0.482 | 0.421 | 0.388
EPLC-272H | 0.319 | 0.39 | 0.321 | 0.128 | 0.102 | 0.86 | 1.04 | 0.98 | 1.14 | 0.256 | 0.292 | 0.493 | 0.4 | 0.327 | 0.339 | 0.312 | 0.413
H3255 | 0.33 |  | 0.372 | 0.285 | 0.317 | 0.642 | 0.806 | 0.865 | 0.888 | 0.455 | 0.605 | 0.638 | 0.716 | 0.573 | 0.561 | 0.616 | 0.638
HARA | 0.235 | 0.267 | 0.296 | 0.248 | 0.113 | 0.979 | 1.12 | 1.15 | 0.345 | 0.117 | 0.105 | 0.109 | 0.0561 | 0.24 | 0.258 | 0.227 | 0.276
HCC-15 | 0.629 | 0.735 | 0.662 | 0.602 | 0.331 | 0.989 | 1.13 | 1.07 | 1.04 | 0.476 | 0.366 | 0.749 | 0.484 | 0.225 | 0.22 | 0.237 | 0.199
HCC-44 |  |  |  |  |  | 0.83 | 0.843 | 0.841 | 0.825 | 0.881 | 1.03 | 1.16 | 1.05 | 0.623 | 0.593 | 0.677 | 0.765
HCC-78 | 0.362 | 0.335 | 0.4 | 0.307 | 0.237 | 0.367 | 0.502 | 0.345 | 0.642 | 0.417 |  | 0.357 | 0.637 | 0.869 | 0.897 | 0.798 | 0.874

From the supplement of paper PMC10307832
